Data as given in patent US8674115B2, “CRTH2 modulators” (Ironwood Pharmaceuticals, Inc., priority 2009, dated 2014).

Legend:
CRTH2 [1] = target: T1, CRTH2 (Homo sapiens, UniProt Q9Y5Y4); test: Human whole blood CD11b antagonist assay (CD11b expression in eosinophils); format: cell-based; parameters: endogenous in cells; host or cells: eosinophils in human whole blood; conditions: challenged with 10 nM 15R-Methyl-PGD2, read-out: CD11b Antag IC50(nM) [HuEos-HuWB-vs10nM15R]
T1 sequence (Q9Y5Y4 1-395): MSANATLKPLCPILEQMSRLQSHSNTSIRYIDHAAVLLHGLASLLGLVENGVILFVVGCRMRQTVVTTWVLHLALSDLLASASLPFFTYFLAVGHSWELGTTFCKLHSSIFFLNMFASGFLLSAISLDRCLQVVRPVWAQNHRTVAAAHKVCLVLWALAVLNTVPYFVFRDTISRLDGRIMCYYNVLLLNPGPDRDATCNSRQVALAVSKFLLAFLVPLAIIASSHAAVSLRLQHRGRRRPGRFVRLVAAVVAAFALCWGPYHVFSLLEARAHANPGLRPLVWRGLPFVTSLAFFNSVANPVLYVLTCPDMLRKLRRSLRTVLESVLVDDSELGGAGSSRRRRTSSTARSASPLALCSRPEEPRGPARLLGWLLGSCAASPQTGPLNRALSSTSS
Method: Human Whole Blood CD11B Antagonist Assay (Modified from Nicholson, et al. Pulmonary Pharmacology and Therapeutics: 20 (2007); 52-59).
The potential CRTH2 antagonist activity of certain compounds was tested in human whole blood using an assay that tests the ability of the compounds to block the CD11b expression in eosinophils by 15-R-methyl-PGD2. A CRTH2 antagonist should block CD11b expression by subsequently added 15-Methyl-PGD2. Human whole blood (200 μL) was incubated at 37° C. for 10 minutes in the presence of various concentrations of test compounds before being challenged with the agonist 15R-Methyl-PGD2 (10 nM). Reactions were terminated by the addition of ice-cold PBS+0.5% BSA+2 mMEDTA (1 mL) and centrifugation (300×g for 5 minutes at 4° C.) Cells were then incubated at 4° C. for 10 min in the presence of human IgG. Cells were then incubated for 30-45 min with a mixture of PE-Cy5-labeled mouse anti-human CD16 (10 ul; BD Biosciences) and FITC-labeled mouse anti-human CD11b (10 μL; Beckman Coulter.) After rinsing (1 mL ice-cold PBS+0.5% BSA+2 mMEDTA), red blood cells were lysed by the addition of 1 mL ice-cold H2O to the cell pellet for 30 sec-1 min immediately followed by the addition of 3.5% NaCl (300 μL.) Cells were then rinsed (2×-1 ml ice cold PBS+0.5% BSA+2 mMEDTA) and fixed in PBS containing 1% formaldehyde. The distribution of fluorescence intensities was measured by flow cytometry. Eosinophils were gated out on the basis of their granularity (high side scatter) and absence of CD-16. CD11b was then measured on this eosinophil population on the basis of fluorescence due to FITC.

CRTH2 [2] = target: T1, CRTH2; test: DPBS CD11b antagonist assay (CD11b expression in eosinophils); format: cell-based; conditions: challenged with 10 nM 15R-Methyl-PGD2, read-out: CD11b Antag IC50(nM) [HuEos-DPBS-vs10nM15R]
Method: DPBS CD11b Antagonist Assay.
The potential CRTH2 antagonist activity of certain compounds was tested using a CD11b expression assay using essentially the method described by Monneret et al. (J Pharmacol Exp Ther 304:349-55, 2003). Briefly, polymorphonuclear cells (0.5 ml; 10^6/ml cells) in PBS containing 0.9 mM CaCl2 and 0.5 mM MgCl2) were preincubated with various concentrations of test compounds at room temperature for 10 minutes before they were challenged with the agonist 15R-Methyl-PGD2 (10 nM). The incubations were terminated by the addition of ice-cold FACSFlow (BD Biosciences; Cat# 342003) and centrifugation (400 g for 5 minutes at 4° C.). The cells were then incubated for 30 minutes at 4° C. with a mixture of PE-labeled mouse anti-human VLA-4 (5 μl; BD Biosciences) and FITC-labeled mouse anti-human CD11b (10 μl; Beckman Coulter). The cells were then incubated with Optilyse C (0.25 ml; Beckman Coulter) for 15 minutes, centrifuged, and then fixed in PBS (0.4 ml; calcium and magnesium free) containing 1% formaldehyde. The distribution of fluorescence intensities among 60,000 cells was measured by flow cytometry. Eosinophils were gated out on the basis of their granularity (high side scatter) and labeling with VLA-4 (PE fluorescence). CD11b was then measured in the eosinophil region on the basis of fluorescence due to FITC. All data were corrected for the value obtained for the corresponding isotope control antibody.

| IC50 (CRTH2 [1]) | IC50 (CRTH2 [2]) | SMILES |
| --- | --- | --- |
| < 5 nM | – | Cc1c(Cc2ccccc2S(=O)(=O)c2ccccc2)cc(-c2ccncc2)n1CC(=O)O [I-1, 2-(2-methyl-3-(2-(phenylsulfonyl)benzyl)-5-(pyridin-4-yl)-1H-pyrrol-1-yl)acetic acid] |
| 5 to 100 nM | – | Cc1c(Cc2ccccc2S(=O)(=O)c2ccccc2)cc(-c2cccnc2)n1CC(=O)O [I-2, 2-(2-methyl-3-(2-(phenylsulfonyl)benzyl)-5-(pyridin-3-yl)-1H-pyrrol-1-yl)acetic acid] |
| 5 to 100 nM | – | Cc1c(Cc2ccccc2S(=O)(=O)N2CCOCC2)c(C#N)c(-c2ccccc2)n1CC(=O)O [I-3, 2-(3-cyano-5-methyl-4-(2-(morpholinosulfonyl)benzyl)-2-phenyl-1H-pyrrol-1-yl)acetic acid] |
| 5 to 100 nM | < 5 nM | Cc1c(Cc2ccccc2S(=O)(=O)c2ccccc2)c(C#N)c(-c2ccccc2)n1CC(=O)O [I-4, 2-(3-cyano-5-methyl-2-phenyl-4-(2-(phenylsulfonyl)benzyl)-1H-pyrrol-1-yl)acetic acid] |
| 100 to 500 nM | < 5 nM | Cc1c(Cc2ccccc2S(=O)(=O)c2ccccc2)cc(-c2ccccc2)n1CC(=O)O [I-6, 2-(2-methyl-5-phenyl-3-(2-(phenylsulfonyl)benzyl)-1H-pyrrol-1-yl)acetic acid] |
| 5 to 100 nM | – | Cc1c(Cc2ccccc2S(=O)(=O)c2ccccc2)cc(-c2cccc(F)c2)n1CC(=O)O [I-8, 2-(5-(3-fluorophenyl)-2-methyl-3-(2-(phenylsulfonyl)benzyl)-1H-pyrrol-1-yl)acetic acid] |
| 5 to 100 nM | 5 to 100 nM | Cc1cc(Cc2ccccc2S(=O)(=O)N2CCCC2)c(C)n1CC(=O)O [I-9, 2-(2,5-dimethyl-3-(2-(pyrrolidin-1-ylsulfonyl)benzyl)-1H-pyrrol-1-yl)acetic acid] |
| 5 to 100 nM | – | Cc1c(Cc2ccccc2S(=O)(=O)N2CCCC2)c(C#N)c(-c2ccccc2)n1CC(=O)O [I-11, 2-(3-cyano-5-methyl-2-phenyl-4-(2-(pyrrolidin-1-ylsulfonyl)benzyl)-1H-pyrrol-1-yl)acetic acid] |
| 5 to 100 nM | – | Cc1c(Cc2ccccc2S(=O)(=O)c2ccccc2)c(-c2ccccc2)c(-c2ccccc2)n1CC(=O)O [I-12, 2-(2-methyl-4,5-diphenyl-3-(2-(phenylsulfonyl)benzyl)-1H-pyrrol-1-yl)acetic acid] |
| 5 to 100 nM | – | Cc1c(Cc2ccccc2S(=O)(=O)N2CCOCC2)cc(-c2ccccc2)n1CC(=O)O [I-13, 2-(2-methyl-3-(2-(morpholinosulfonyl)benzyl)-5-phenyl-1H-pyrrol-1-yl)acetic acid] |
| 100 to 500 nM | – | Cc1c(Cc2ccccc2S(=O)(=O)N2CCCC2)c(C#N)c(C2CCCCC2)n1CC(=O)O [I-14, 2-(3-cyano-2-cyclohexyl-5-methyl-4-(2-(pyrrolidin-1-ylsulfonyl)benzyl)-1H-pyrrol-1-yl)acetic acid] |
| 100 to 500 nM | – | Cc1c(Cc2ccccc2S(=O)(=O)c2ccccc2)cc(-c2ccc(F)cc2)n1CC(=O)O [I-15, 2-(5-(4-fluorophenyl)-2-methyl-3-(2-(phenylsulfonyl)benzyl)-1H-pyrrol-1-yl)acetic acid] |
| 100 to 500 nM | – | Cc1c(Cc2ccccc2S(=O)(=O)N2CCCC2)cc(-c2ccccc2)n1CC(=O)O [I-16] |
| 100 to 500 nM | – | Cc1c(Cc2ccccc2S(=O)(=O)c2ccccc2)cc(-c2ccccn2)n1CC(=O)O [I-17, 2-(2-methyl-3-(2-(phenylsulfonyl)benzyl)-5-(pyridin-2-yl)-1H-pyrrol-1-yl)acetic acid] |
| > 500 nM | – | Cc1c(Cc2ccccc2S(=O)(=O)c2ccccc2)cc(-c2ccccc2F)n1CC(=O)O [I-18, 2-(5-(2-fluorophenyl)-2-methyl-3-(2-(phenylsulfonyl)benzyl)-1H-pyrrol-1-yl)acetic acid] |
| – | > 500 nM | Cc1c(Cc2ccc(S(=O)(=O)N3CCCC3)cc2)c(C)n(CC(=O)O)c1CCO [I-20, 2-(2-(2-hydroxyethyl)-3,5-dimethyl-4-(4-(pyrrolidin-1-ylsulfonyl)benzyl)-1H-pyrrol-1-yl)acetic acid] |
| 5 to 100 nM | < 5 nM | Cc1c(C#N)c(Cc2ccccc2S(=O)(=O)c2ccccc2)c(C)n1CC(=O)O [I-23, 2-(3-cyano-2,5-dimethyl-4-(2-(phenylsulfonyl)benzyl)-1H-pyrrol-1-yl)acetic acid] |
| > 500 nM | 5 to 100 nM | Cc1c(Cc2ccccc2S(=O)(=O)c2ccccc2)cc(-c2ccc(C(F)(F)F)cc2)n1CC(=O)O [I-25, 2-(2-methyl-3-(2-(phenylsulfonyl)benzyl)-5-(4-(trifluoromethyl)phenyl)-1H-pyrrol-1-yl)acetic acid] |
| > 500 nM | – | Cc1c(Cc2ccccc2S(=O)(=O)c2ccccc2)cc(-c2ccccc2C(F)(F)F)n1CC(=O)O [I-27, 2-(2-methyl-3-(2-(phenylsulfonyl)benzyl)-5-(2-(trifluoromethyl)phenyl)-1H-pyrrol-1-yl)acetic acid] |
| 5 to 100 nM | < 5 nM | Cc1cc(Sc2ccccc2S(=O)(=O)N2CCOCC2)c(C)n1CC(=O)O [I-29, 2-(2,5-dimethyl-3-(2-(morpholinosulfonyl)phenylthio)-1H-pyrrol-1-yl)acetic acid] |
| 5 to 100 nM | < 5 nM | Cc1c(C#N)c(Cc2ccccc2S(=O)(=O)N2CCCC2)c(C)n1CC(=O)O [I-32, 2-(3-cyano-2,5-dimethyl-4-(2-(pyrrolidin-1-ylsulfonyl)benzyl)-1H-pyrrol-1-yl)acetic acid] |
| 5 to 100 nM | 5 to 100 nM | Cc1c(C#N)c(Cc2ccccc2S(=O)(=O)N2CCOCC2)c(C)n1CC(=O)O [I-46, 2-(3-cyano-2,5-dimethyl-4-(2-(morpholinosulfonyl)benzyl)-1H-pyrrol-1-yl)acetic acid] |
| 5 to 100 nM | < 5 nM | CC(=O)c1c(Cc2ccccc2S(=O)(=O)c2ccccc2)c(C)n(CC(=O)O)c1C [I-52, 2-(3-acetyl-2,5-dimethyl-4-(2-(phenylsulfonyl)benzyl)-1H-pyrrol-1-yl)acetic acid] |
| 5 to 100 nM | < 5 nM | CC(=O)c1c(Cc2ccccc2S(=O)(=O)N2CCCC2)c(C)n(CC(=O)O)c1C [I-53, 2-(3-acetyl-2,5-dimethyl-4-(2-(pyrrolidin-1-ylsulfonyl)benzyl)-1H-pyrrol-1-yl)acetic acid] |
| 5 to 100 nM | < 5 nM | Cc1c(Cc2ccccc2S(=O)(=O)N2CCCC2)c(C(=O)c2ccccc2)c(C)n1CC(=O)O [I-55, 2-(3-benzoyl-2,5-dimethyl-4-(2-(pyrrolidin-1-ylsulfonyl)benzyl)-1H-pyrrol-1-yl)acetic acid] |
| 100 to 500 nM | > 500 nM | Cc1cc(C(=O)c2ccccc2S(=O)(=O)N2CCOCC2)c(C)n1CC(=O)O [I-56, 2-(2,5-dimethyl-3-(2-(morpholinosulfonyl)benzoyl)-1H-pyrrol-1-yl)acetic acid] |
| 5 to 100 nM | < 5 nM | Cc1c(Cc2ccccc2S(=O)(=O)N2CCCC2)c(-c2ccccc2)c(C)n1CC(=O)O [I-57, 2-(2,5-dimethyl-3-phenyl-4-(2-(pyrrolidin-1-ylsulfonyl)benzyl)-1H-pyrrol-1-yl)acetic acid] |
| > 500 nM | – | Cc1c(C#N)c(CC(=O)O)c(C)n1Cc1ccccc1S(=O)(=O)N1CCCC1 [I-73, 2-(4-cyano-2,5-dimethyl-1-(2-(pyrrolidin-1-ylsulfonyl)benzyl)-1H-pyrrol-3-yl)acetic acid] |
